Test results: publication PMC6968641, “N-monoarylacetothioureas as potent urease inhibitors: synthesis, SAR, and biological evaluation” (Journal of Enzyme Inhibition and Medicinal Chemistry, 2019)
≈ marks a conversion by molar mass, not a printed value. Read-outs that look alike come from different tables or passages of the source.

Tests used:
[1] = target: T1, H. pylori urease (Helicobacter pylori, UniProt P69996); test: Urease inhibition, extracted H. pylori urease (indophenol method); format: biochemical; details: for IC50: extracted H. pylori urease
T1 construct: endogenous in cells; host or cells: H. pylori ATCC 43504; sonicated, supernatant desalted on Sephadex G-25 (crude extract)
T1 sequence (P14916 whole entry): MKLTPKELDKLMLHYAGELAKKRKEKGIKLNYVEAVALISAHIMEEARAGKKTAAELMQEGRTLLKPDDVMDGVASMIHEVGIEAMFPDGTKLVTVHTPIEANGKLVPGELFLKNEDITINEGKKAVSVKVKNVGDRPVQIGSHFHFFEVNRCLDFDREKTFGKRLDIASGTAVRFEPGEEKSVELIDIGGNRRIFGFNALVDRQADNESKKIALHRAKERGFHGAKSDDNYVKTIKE
T1 sequence (P69996 whole entry): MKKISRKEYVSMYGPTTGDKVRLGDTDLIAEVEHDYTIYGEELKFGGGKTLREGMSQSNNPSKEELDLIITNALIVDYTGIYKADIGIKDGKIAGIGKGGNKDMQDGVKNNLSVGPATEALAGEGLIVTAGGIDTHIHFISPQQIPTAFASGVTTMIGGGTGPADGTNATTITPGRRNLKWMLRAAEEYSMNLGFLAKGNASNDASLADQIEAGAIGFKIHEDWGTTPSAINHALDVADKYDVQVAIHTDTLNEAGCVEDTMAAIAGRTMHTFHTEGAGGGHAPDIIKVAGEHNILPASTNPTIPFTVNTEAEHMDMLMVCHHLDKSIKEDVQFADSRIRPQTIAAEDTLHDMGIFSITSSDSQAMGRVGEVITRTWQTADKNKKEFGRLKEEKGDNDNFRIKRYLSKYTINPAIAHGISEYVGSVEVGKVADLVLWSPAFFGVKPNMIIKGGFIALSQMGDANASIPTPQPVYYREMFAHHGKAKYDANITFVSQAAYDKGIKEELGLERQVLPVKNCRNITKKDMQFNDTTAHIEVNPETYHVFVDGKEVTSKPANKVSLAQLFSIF
Method: For urease inhibition assays, 50 mL broth cultures (2.0 × 10^8 CFU/mL) were centrifuged (5000×g, 4 °C) to collect the bacteria, and after washing twice with phosphate-buffered saline (pH 7.4), the H. pylori precipitation was stored at –80 °C for 8 h, and then was returned to room temperature, and after addition of 3 mL of distilled water and protease inhibitors, sonication was performed for 60 s. Following centrifugation (15,000×g, 4 °C), the supernatant was desalted through Sephadex G-25 column (PD-10 columns, Amersham Pharmacia Biotech, Uppsala, Sweden). The resultant crude urease solution was added to an equal volume of glycerol and stored at 4 °C until use in the experiment.
Urease activity was determined in the 96-well assay plate by measuring ammonia production using the indophenol method as described by Weatherburn[20]. Briefly, to each well, 50 µL of urea (10 mM) in phosphate buffer solution was added in a mixture of 25 µL (10 U) of H. pylori urease and 25 µL of the test compound, which was incubated at 37 °C for 0.5 h. Fifty µL of phenol reagent (containing 127 mM phenol and 0.168 mM sodium nitroprusside) and 50 µL of alkali reagent (containing 125 mM NaOH and 0.168 mM NaOCl) were added in turn. The resulted mixture was incubated at 37 °C for another 0.5 h for colouration developing. The increasing absorbance was measured at 630 nm after 50 min using a microplate reader (Molecular Devices, San Jose, CA). Percentage inhibitions were calculated from the following formula (Equation (1)). Experiments were performed in triplicate and AHA was used as reference drug, and the IC50 value was determined as the concentration of compound that give 50% inhibition of maximal activity. As for the urease assay of intact cells, 25 µL (10 U) of H. pylori urease was replaced by 25 µL of cell suspension (4.0 × 10^7 CFU/mL).

[2] = system: H. pylori; test: Minimum inhibitory concentration, broth microdilution (CLSI); format: cell-based, Helicobacter pylori (ATCC 43504)
Method: H. pylori (ATCC 43504; […] The minimum inhibitory concentration (MIC) values were determined using the broth microdilution protocol according to the methods of the Clinical and Laboratory Standards Institute (CLSI)[21].

[3] = target: T2, urease in intact H. pylori cell (Helicobacter pylori, UniProt P69996); test: Urease inhibition in intact H. pylori cell (indophenol method); format: cell-based
T2 construct: H. pylori urease was replaced by 25 µL of cell suspension (4.0 × 10^7 CFU/mL); endogenous in cells; host or cells: intact H. pylori ATCC 43504 cells
T2 sequence (P69996 whole entry): as above
T2 sequence (P14916 whole entry, further chain): as the sequence (P14916 whole entry) above

[4] = target: T3, Jack bean urease (Canavalia ensiformis, UniProt P07374); test: Ligand affinity by surface plasmon resonance (SPR); format: binding; details: for kon: pH 7.4; for koff: pH 7.4, SPR, immobilised urease, PBS pH 7.4
T3 construct: purchased
T3 sequence (P07374 whole entry, looked up): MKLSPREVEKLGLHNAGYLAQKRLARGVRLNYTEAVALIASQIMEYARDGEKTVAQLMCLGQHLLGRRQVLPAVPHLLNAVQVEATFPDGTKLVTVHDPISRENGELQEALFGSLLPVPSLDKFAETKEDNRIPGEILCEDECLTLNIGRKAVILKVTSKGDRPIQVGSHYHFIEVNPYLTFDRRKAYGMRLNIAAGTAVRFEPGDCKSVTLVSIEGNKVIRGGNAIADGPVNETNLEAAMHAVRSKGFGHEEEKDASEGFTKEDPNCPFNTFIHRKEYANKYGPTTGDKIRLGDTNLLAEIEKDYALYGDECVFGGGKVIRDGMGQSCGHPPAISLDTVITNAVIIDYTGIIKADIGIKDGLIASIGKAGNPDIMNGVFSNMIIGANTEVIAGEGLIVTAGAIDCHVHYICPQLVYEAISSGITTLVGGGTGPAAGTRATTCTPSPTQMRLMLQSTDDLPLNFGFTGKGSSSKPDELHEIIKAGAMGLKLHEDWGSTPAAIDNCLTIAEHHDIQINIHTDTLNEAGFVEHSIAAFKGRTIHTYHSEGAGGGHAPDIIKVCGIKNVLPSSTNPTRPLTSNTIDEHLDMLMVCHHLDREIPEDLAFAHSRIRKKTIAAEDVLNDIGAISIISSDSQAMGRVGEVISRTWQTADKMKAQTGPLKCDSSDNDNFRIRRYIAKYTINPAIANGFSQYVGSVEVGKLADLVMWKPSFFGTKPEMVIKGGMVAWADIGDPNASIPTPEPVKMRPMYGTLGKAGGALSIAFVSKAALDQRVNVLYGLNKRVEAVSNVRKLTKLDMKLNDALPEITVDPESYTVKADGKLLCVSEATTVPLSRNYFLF
Method: The binding kinetics of selected compounds were assayed via surface plasmon resonance (SPR) using an OPEN SPR instrument (Nicoya Lifesciences, Kitchener, Canada). First, urease dissolved (50 µg/mL) in PBS buffer (1 mM KH2PO4, 155 mM NaCl, 3 mM Na2HPO4-12H2O, pH 7.4), was immobilised to a CM5 chip using a standard amine coupling procedure. Then, SPR measurements were carried out in PBS, and stock solutions were diluted in the same buffer. Data were collected with OpenSPR control software. Experiments were performed by monitoring the refractive index changes as a function of time under constant flow rate of 20 µL/min. The relative amount of inhibitor bound to the urease was determined by measuring the net increase in refractive index over time compared to control running buffer. There is an inline subtraction of reference surface during the run. This change is usually reported in response units (RU). Sensograms were processed and analysed using TraceDrawer software. The binding curves were fit to determine the equilibrium dissociation constant (KD).
In the present paper, the pure Jack bean urease from commercial was used for this assay because of non-availability of pure H. pylori urease. […] For efficient and tight ligand binding, the rate constant koff is of particular interest, because koff has a potential to differentiate indistinguishable compounds with similar affinities.

[5] = Cytotoxicity MTT assay, P69; format: cell-based; details: human, P69 cells (normal prostate cell line), 25 μg/mL
Method: (§1) The stock solutions of the selected compounds (250 µg/mL, in PBS) were prepared in medium. L-02 cells and P69 cells were grown in medium (90% RPMI-1640 medium, 10% foetal bovine serum, 1% penicillin/streptomycin) and maintained at 37 °C in a humidified atmosphere containing 5% CO2, respectively. Cells were seeded in 96-well cell culture plates. On the day when seeding, the cells were exposed to 250 µg/mL of compounds and further cultured for 72 h at 37 °C. Cell proliferation was then determined using the thiazolyl blue tetrazolium bromide (MTT) assay.

[6] = target: T3, Jack bean urease; test: Enzyme kinetic study (indophenol method); format: biochemical; details: for Type of inhibition: Jack bean urease; for Ki': dissociation constant of urease-urea-inhibitor complex
Method: Based on the indophenol method, the velocity of ammonia production (V) was measured in the presence of concentration gradients of urea ([S]) for every specific concentration of selected compounds ([I]). Nonlinear fitting curves to data of V and [S] were used to determine the type of enzyme inhibition based on the general kinetics equation (Equation (1)). Subsequently, the resulted fitting constants ( Km/Vmax(1+[I]/Ki) or 1/Vmax(1+[I]/Ki′) ) and [I] were linearly fitted to give kinetic parameters Ki and Ki', respectively. The experimental assay was performed against a pure urease (Jack bean urease) for the consideration of precision. (1) V=Vmax[S]/Km(1+[I]/Ki)+(1+[I]/K^′i)[S]
Mazzei et al. confirmed that urease shared the mechanism of catalysis and inhibition regardless of the biological sources[27]^,[28]. For excluding the possible interference, a pure urease (Jack bean urease) was therefore used for kinetic assays. As an example, Figure 2 describes the preincubation-time dependence of urease inhibition by b19. The suppressed urease activity maintained at relatively constant values with the increasing preincubation time under different concentrations of b19, resulting in nearly equal IC50 values.
Similarly, kinetic parameters ( Ki and Ki' ) and inhibition types of other compounds were also determined and are shown in Table 3.

[7] = Cytotoxicity MTT assay, L-02; format: cell-based; details: human, L-02 cells (normal hepatic cell line), 25 μg/mL
Method: as §1

[8] = Helicobacter pylori, pH=4.0, read-out: MIC pH=4.0
[9] = Helicobacter pylori, pH=7.0, read-out: MIC pH=7.0

| SMILES | IC50 ([1]; IC50 Extracted urease) | melting point | viability at 72 h, 25 µg/mL [5] | IC50 [3] | viability at 72 h, 25 µg/mL [7] | also measured |
| --- | --- | --- | --- | --- | --- | --- |
| CC(=O)NO [AHA, acetohydroxamic acid, reference compound] |  |  |  |  |  | IC50 ([1]; read-out: IC50 Extracted urease): 27.2 ± 0.7 µM; MIC ([2]; pH=4.0, read-out: MIC pH=4.0): 16.0 µM (≈ 1.2 µg/mL); MIC ([2]; pH=7.0, read-out: MIC pH=7.0): >64.0 µM; IC50 ([3]; intact H. pylori cell suspension, read-out: IC50 Urease in intact cell): 171 ± 9 µM |
| NC(=S)NC(=O)Cc1cccc(Br)c1 [b2] | 58.4 ± 4.3 µM | 207.4 to 208.8 °C |  |  |  |  |
| NC(=S)NC(=O)Cc1ccc(Cl)c(Cl)c1 [b3] | 63 ± 4.6 µM | 202.1 to 203.4 °C |  |  |  |  |
| NC(=S)NC(=O)Cc1cccc(O)c1 [b4] | 16.3 ± 0.3 µM | 160.3 to 161.5 °C | 88.1% | 108 ± 6.1 µM | 93.7% | Kd [4]: 0.644 ± 0.0092 µM; kon [4]: 60800 M⁻¹ s⁻¹; koff [4]: 0.0389 s⁻¹; MIC [2, 8]: 64 µM (≈ 13.5 µg/mL); MIC [2, 9]: > 64 µM; Ki [6]: 4.34 µM; Type of inhibition [6]: Reversible; Ki' [6]: 8.52 µM |
| COc1cccc(CC(=O)NC(N)=S)c1 [b5] | 75.8 ± 5.7 µM | 184.5 to 186.1 °C |  |  |  |  |
| NC(=S)NC(=O)Cc1ccccc1F [b6] | 41.9 ± 2.5 µM | 157.2 to 159 °C |  |  |  |  |
| NC(=S)NC(=O)Cc1cccc(Cl)c1 [b7] | 63.6 ± 5.1 µM | 136.6 to 137.4 °C |  |  |  | fold decrease in potency relative to b19, extracted urease ([1]; ratio of IC50 values vs b19): 397 fold |
| NC(=S)NC(=O)Cc1ccc(O)cc1 [b8] | 9.93 ± 0.9 µM | 177.1 to 178.3 °C | 94.6% | 52.5 ± 3.9 µM | 92.1% | Kd [4]: 0.311 ± 0.0103 µM; kon [4]: 9.38e+06 M⁻¹ s⁻¹; koff [4]: 0.00292 s⁻¹; MIC [2, 8]: 8 µM (≈ 1.68 µg/mL); MIC [2, 9]: 64 µM (≈ 13.5 µg/mL); Ki [6]: 2.54 µM; Type of inhibition [6]: Reversible; Ki' [6]: 11.3 µM |
| NC(=S)NC(=O)Cc1cccc(C(F)(F)F)c1 [b9] | 136 ± 7 µM | 204.3 to 205.8 °C |  |  |  |  |
| COc1ccc(CC(=O)NC(N)=S)cc1OC [b10] | 24.2 ± 0.6 µM | 146.3 to 147.6 °C | 95.3% | 207 ± 16 µM | 108% |  |
| COc1ccc(CC(=O)NC(N)=S)cc1 [b11] | 16.3 ± 1.2 µM | 143.5 to 144.7 °C | 87.5% | 98.3 ± 5.9 µM | 97% | Kd [4]: 0.667 ± 0.0137 µM; kon [4]: 572000 M⁻¹ s⁻¹; koff [4]: 0.0381 s⁻¹; MIC [2, 8]: 32 µM (≈ 7.18 µg/mL); MIC [2, 9]: > 64 µM; Ki [6]: 3.94 µM; Type of inhibition [6]: Reversible; Ki' [6]: 12.7 µM |
| NC(=S)NC(=O)Cc1ccc(Br)cc1 [b12] | 22.9 ± 0.4 µM | 174.9 to 176.2 °C | 89.4% | 189 ± 18 µM | 91.5% |  |
| NC(=S)NC(=O)Cc1ccccc1Cl [b13] | 54.2 ± 4.8 µM | 148.8 to 151.2 °C |  |  |  |  |
| NC(=S)NC(=O)Cc1cccc(F)c1 [b14] | 50.3 ± 3.5 µM | 126 to 127.4 °C |  |  |  |  |
